Like-named read-outs stand apart in the source and are kept apart here.
Test: Comparison of water solubilities of haptens, modified haptens and gentamicin reaction products
Format: physicochemical
Source text: In der Tabelle III werden die Wasserlöslichkeiten der Haptene Phenobarbital und Diphenylhydantoin in unveränderter Form, in modifizierter Form (carboxyliert bzw. aminiert) und in der sogenannten konjugierten Form, nämlich als Umsetzungsprodukt mit Gentamicin gegenübergestellt. Hieraus ergibt sich, daß die Haptene in unveränderter und in modifizierter Form hydrophob sind (Die Unlöslichkeit in Wasser ist ein Maß für die Hydrophobie einer Verbindung). Mit steigender Unlöslichkeit der Verbindungen in Wasser steigt die Hydrophobie und die Wahrscheinlichkeit, daß sie an die Oberfläche gebunden werden, wobei durch die unspezifischen Bindungen große Ungenauigkeiten in der Immunofluoreszenz-Bestimmungsmethode verursacht werden. Wie aus der Tabelle III weiterhin ersichtlich, erhält man ein lösliches, d.h. hydrophiles Produkt, wenn man ein hydrophobes Hapten wie Phenobarbital oder Diphenylhydantoin mit einer hydrophilen Verbindung wie Gentamicin verbindet. Derartige Produkte werden nicht als solche an die feste Oberfläche gebunden.

Row | Compound | Wasserlöslichkeiten | Wasserlöslichkeiten (in water, insolubility is taken as a measure of hydrophobicity)
1 | O=C1NC(=O)C(c2ccccc2)(c2ccccc2)N1 [Diphenyl-hydantoin, Diphenylhydantoin] | unlöslich | –
2 | CCC1(c2ccccc2)C(=O)NC(=O)NC1=O [Phenobar-bital, Phenobarbital] | – | unlöslich

From patent EP0047459A2, “Fluorescent reagent and immunofluorescent determination method” (INTERNATIONAL DIAGNOSTIC TECHNOLOGY, INC., priority 1980, dated 1982)
